Experimental data from US10617656B2, “Methods of increasing the cytotoxicity of chemotherapeutic agents with multisubstrate inhibitors of histone, protein-Lys, polyamine acetylation, and polyamine metabolism” (Vanderbilt University, priority 2010, dated 2020).

Legend:
[1] = tested on: H358 lung cancer cells; test: [3H]-thymidine incorporation (DNA synthesis) assay in H358 cells; assay type: cell-based
Procedure: (§1) (A) Structures of 1a, and the acetylated side chain of a lysine residue within the polypeptide chain of a protein targeted by the acetylating enzyme (R1 and R2 are the main chain elements on both sides of the lysyl residue). (B) [^3H]-thymidine incorporation into DNA of H358 cells pulsed for 6 hrs at three different time points after the addition of increasing concentrations of 1a, i.e., at 6-12 hrs (12 hr curve), at 18-24 hours (24 hr curve), or at 42-48 hrs (48 hr curve). Incorporation is represented as a percentage relative to control (untreated) cells. (C) Cell cycle analysis of propidium iodide-stained cells harvested at various times after addition of 50 μM 1a. % of cells in G1, S, and G2 represents the average of two independent profiles. (D) Western analysis of histone H3 lysine 9 acetylation, histone H3 lysine 56 acetylation, histone H3 lysine 9 methylation, and total histone H3, before “c” or at the indicated times after addition of 50 μM 1a. Each lane represents 60 μg cellular protein.
(§2) Control cells were left untreated. […] Control cells were left untreated.
Cells were either labeled immediately before treatment (starting DNA synthesis rate), or subjected to the indicated treatments and then pulsed on successive days until day 4. DNA synthesis is represented as the percent of starting DNA synthesis rate. Viability was determined for each treatment condition 24 hours post-start of treatment by the trypan blue exclusion assay, with percentages of viable cells indicated to the right of the graph.
H358 cells (2,000/well) in 96-well plates were treated with 1, 10 or 50 μM of spd-1a, spd-2a, spd-3a, spm3, or spm2 for 12 hours. Triplicate wells of cells were pulsed 6 hours with 0.5 μCi [^3H]-thymidine (NEN, Boston Mass.) post-start of drug treatment, and harvested onto filter paper using a Brandel Harvester and subjected to scintillation counting. Untreated cells were pulsed from 0-6 hrs to establish the initial rate of incorporation.
Cells were plated in 96-well plates (2000 cells per well to insure conditions for exponential growth for untreated cells over the time course of the experiment) and exposed to the following treatments: 1a (50 μM); camptothecin (Sigma, St Louis, Mo. 5 nM, 18 hours); cisplatin (Platinol, obtained through local pharmacies, 2 μM, 1 hour 15 minutes), 5-fluorouracil (5FU, Adrucil™, obtained through local pharmacies, 2 μM, 1 hour 15 minutes), Taxotere (provided by the late Dr. Pierre Potier, 5 nM, 18 hours). UVC treatment (40 J/m^2) using a Stratalinker™, Stratagene, La Jolla, Calif.) was carried using medium lacking phenol red. At 0-6 hr, 18-24 hr (day 1), 42-48 hr […], 66-72 hr (day 3), and 90-96 hr (day 4) post-start of treatment, triplicate wells were incubated with 0.5 μCi [^3H]-thymidine (NEN, Boston Mass.), harvested onto filter paper, and subjected to scintillation counting. Trypan blue exclusion assays for cell membrane integrity were carried out as known in the art.
The present inventors used 96-well viability assays as described in Saadatmandi et al (Cancer Gene Therapy (2002) 9:[…]) to examine the effect of 1a on DNA synthesis in H358 cells, as well as the combined effects of 1a and chemotherapeutic agents. H358 cells were plated in 96-well plates at 3000 cells per well. […]

[2] = tested on: histone H3 lysine 9 acetylation in H358 cells; test: Western analysis of histone H3 acetylation/methylation in H358 cells; assay type: cell-based; settings: 50 μM, 12 hours
Procedure: as §1
Each lane represents 175 μg cell lysate protein.
One 6 cm culture dish of H358 cells per treatment was used. Cells were treated with 50 μM spm-2, spm-3, or spd-3a for 12 hours. Histones were extracted from cells in 0.2M H2SO4 (as described in Furuta, T., et al (2003) J. Biol. Chem. 278: 20303-20312), followed by SDS-PAGE and Western blotting. Blots were probed with anti-acetyl histone H3-lysine 9 (Upstate Biotechnology, Inc.)
Cells were lysed by adding 1 mL of 0.2 M H2SO4. […]
One 10-cm plate of H358 lung cancer cells (about 2×10^6 cells), grown in DMEM+10% Fetal bovine serum as described in reference, were treated for 24 hours with 50 μM 1a inhibitor. […] Treated cells and untreated (control) cells were harvested by lysing in buffer containing 10 mM Hepes pH 7.5, 100 mM NaCl, 300 mM sucrose, 3 mM MgCl2, 1 mM EDTA, 1 mM DTT, 0.5% Triton X-100, 1 mM PMSF, protease inhibitor pellet (Roche) and analyzed on 10% SDS-PAGE gels, followed by Western immunoblot analysis of total histone H3, methylated histone H3 (methylated on lysine 9), and acetylated histone H3 (acetylated on lysine 9). […]

[3] = tested on: H358 lung cancer cells; assay type: cell-based; settings: CPT 5 nM 18 hours + 3a
Procedure: as §2
Cells were given fresh inhibitor on the first, second, and third days of treatment and viability was measured on the 4th day (i.e. 3 days post start of treatment). […]
(A) Structure of Spd-3a. (B) Western analysis of histone H3K9-acetylation and total histone H3, measured in control, untreated H358 lung cancer cells “C” or in H358 cells incubated 12 hours in the presence of 50 μM Spd-2a or Spd-3a. Each lane represents 60 μg cellular protein. (C) [3H]-thymidine incorporation (counts per minute) into DNA of H358 cells during a 6 hour pulse beginning at 42 hours post-start of treatment. Treatments were as follows (bars 1-6 left to right): (1) control: no treatment; (2) CPT alone: 5 nM 18 hours; (3) 3a alone: 50 μM; (4-6) 3a+CPT: CPT (5 nm, 18 hours)+3a at indicated dose. After 18 hours, CPT was removed and medium was replaced with fresh medium containing Spd-3a at the indicated dose. Each bar represents the average of triplicates. (D) 3-day 96-well viability assay of H358 cells grown in the presence of increasing amounts of Spd-2a or Spd-3a, with or without CPT (5 nM 18 hours). […] Each data point represents the average of three wells.
Date of exp: Jul. […] Date of exp: Sep.
(§3) Cells were plated in 96-well plates at 2000 cells per well and treated with the indicated doses of spd-3a. Cell viability was measured by the MTS assay 3 days later.
DLD-1 cells or H358 cells were plated in 96-well plates at 2000 cells per well and treated with the indicated doses of (A) spm-3 or (B) spm-2. (C) Cell viability was measured by the MTS assay 3 days later. Similar experiment using GT41 fibroblasts with spm2 or spm 3. Each assay point represents an average of duplicates. […]

[4] = In vivo toxicity in nude mice (tail vein injection); settings: 100 μl of 5 mM, approximately 10 mg/kg, twice per week for 3 weeks, 4 mice
Procedure: They injected a second set of 4 mice with 100 μl of spd-3a (5 mM, approximately 10 mg/kg, or about 0.25 mM initial blood concentration), twice per week for 3 weeks.

[5] = 96-well MTS viability assay, GT41F fibroblasts; assay type: cell-based, human; settings: human, GT41F skin fibroblasts, spd-3a 1 μM, single agent, read-out: viability retained
Procedure: as §3
DLD-1 cells or H358 cells were plated in 96-well plates at 2000 cells per well and treated with the indicated doses of (A) spm-3 or (B) spm-2. (C) Cell viability was measured by the MTS assay 3 days later. Similar experiment using GT41 fibroblasts with spm2 or spm 3. Each assay point represents an average of duplicates.

[6] = tested on: endogenous HATs associated with solubilized chromatin; settings: Parello et al. 1990; cited from earlier work
[7] = tested on: MCF7 breast cancer cells; settings: 72 hr assay; DFMO 100 μM, 5FU 2 μM, doxorubicin 100 nM
Procedure: Viability was measured 3 days after the start of treatment and is expressed as a percentage of control (untreated) cell viability.
Each point is average of triplicates. […]
The present inventors carried out 96-well viability assays as we have previously described (Saadatmandi et al, Cancer Gene Therapy (2002) 9:830-9), in which MCF7 breast cancer cells were plated at 3000 cells per well. After overnight attachment, triplicate wells were treated with increasing doses of inhibitor 1a. Control wells were left untreated. After 3 days, cell viability was measured by the MTS assay, which measures the bioconversion of an uncolored substrate to a colored formazan derivative, and is proportional to cell number.

[8] = tested on: DLD-1 colon cancer; test: Nude mouse subcutaneous DLD-1 tumor model; assay type: in vivo; settings: DFMO only, intratumoral 2 mg/kg
Procedure: Tumors were initiated By subcutaneous implantation of […] DLD-1 colon cancer cells. […] Tumors were measured and volumes calculated as in FIG. 14.
Tumors were initiated by injecting 10^6 DLD-1 cells (from ATCC) per mouse (female nude mouse, 4-5 weeks, Harlan Labs) subcutaneously in the flank. (A) When the average tumor size reached 26 mm^3, animals were randomized into 2 groups (3 per group). One group was left untreated and served as the control (-●-). […] Tumors were measured bidirectionally at 2-3 day intervals and tumor volumes were calculated (v=½ L×w^2). A paired t-test was used to evaluate the significance of the differences between the two groups of animals. […] (B) Tumors were initiated as in part (A). When tumors reached an average size of about 30 mm^3, animals were randomized into three groups of 2 animals each. The control group (-●-) received no treatment. The DFMO group (-▪-) received intratumoral injections of DFMO (2 mg/kg) on days 1, 7, 9 (5 PM), and 2, 8, 10 (9 AM, 5 PM). […] Tumors were measured and volumes calculated as in part (A). A paired t-test was used to evaluate the significance of the difference between the curves.

[9] = tested on: MDA MB-435 breast cancer cells; test: 72 hr viability assay, MDA MB-435; assay type: cell-based; settings: 72 hr assay; DFMO 100 μM, 5FU 2 μM, doxorubicin 100 nM

Compound	inhibition of DNA synthesis ([1]; 1, 10 or 50 μM, 12 hours)	suppression of DNA synthesis in combination with camptothecin ([1]; CPT 5 nM 18 hours + 3a, pulse at 42 hours)	histone H3K9 acetylation (Western) [2]	histone H3K9 acetylation (Western) ([2]; listed as spd-3a)	suppression of 3-day cell viability in combination with camptothecin [3]	signs of toxicity [4]	viability at 3 days, 1 µM [5]	inhibitory effect on endogenous HATs, compared with Spd-2a [6]	effect as single agent on viability [7]	difference between control and treated tumor curves [8]	effect as single agent on viability [9]
CC(=O)NCCSCC(=O)NCCCNCCCCN [3a]	inhibit DNA synthesis	effective	nearly complete ablation	suppress histone acetylation	effective	no signs of distress or illness	~60%	lower inhibitory effect than Spd-2a	–	–	–
NCCC[C@](N)(C(=O)O)C(F)F [DFMO, α-difluoromethylornithine]	–	–	–	–	–	–	–	–	ineffective	not significant	ineffective
